The text below walks through data of ChEMBL document CHEMBL3616471, “Synthesis and in vitro antitumor evaluation of betulin acid ester derivatives as novel apoptosis inducers” (Eur J Med Chem, 2015).

SMILES strings stand for the structures. The source made the active and inactive calls. The rule behind the calls is not given here. Some results are limits rather than exact numbers.

Data set [1] has as its system MGC-803. Nature of the data set: Induction of apoptosis in human MGC803 cells assessed as compact and condensed chromatin at 10 uM after 48 hrs using Hoechst 33258 staining by fluorescence microscopic analysis. The data set is classed as functional, cell-based.
Data set [2] deals with MGC-803. Put plainly: Induction of apoptosis in human MGC803 cells assessed as formation of nicks in DNA at 10 uM after 48 hrs by TUNNEL assay. In kind it is functional, cell-based.
The subject of data set [3] is MGC-803. Put plainly: Selectivity index, ratio of IC50 for mouse NIH/3T3 cells to IC50 for human MGC803 cells. In kind it is functional.
For data set [4], the system named is MGC-803. Nature of the data set: Induction of apoptosis in human MGC803 cells assessed as cell budding at 5 uM after 12 to 48 hrs using acridine orange/ethidium bromide staining by fluorescence microscopic analysis. In kind it is functional, cell-based.
Data set [5] has as its system MGC-803. Nature of the data set: Induction of apoptosis in human MGC803 cells assessed as membrane blebbing at 5 uM after 12 to 48 hrs using acridine orange/ethidium bromide staining by fluorescence microscopic analysis. In kind it is functional, cell-based.
Data set [6] has as its system PC-3. Nature of the data set: Ratio of betulin IC50 to compound IC50 for human PC3 cells. In kind it is functional.
For data set [7], the system named is A-375. Nature of the data set: Ratio of betulin IC50 to compound IC50 for human A375 cells. In kind it is functional.
A short description of data set [8]: Cytotoxicity against mouse NIH/3T3 cells after 72 hrs by MTT assay. The data set is classed as cell-based. Particulars: nih3t3, 72 h. In general terms: Tetrazolium assays rely on reduction of a dye to a coloured formazan, in cell work by metabolically active cells.
In data set [9] the test system is MGC-803. Nature of the data set: Cytotoxicity against human MGC803 cells after 72 hrs by MTT assay. Particulars: for IC50: MGC-803, 72 h. The data set is classed as functional, cell-based.
Data set [10] concerns MGC-803. Put plainly: Induction of apoptosis in human MGC803 cells assessed as apoptosis ratio at 10 uM after 36 hrs using annexin-V and propidium iodide staining by flow cytometry. The data set is classed as functional. A general note: In flow cytometry, cells or beads pass a laser one at a time.
In data set [11] the test system is PC-3. Nature of the data set: Cytotoxicity against human PC3 cells after 72 hrs by MTT assay. In kind it is functional, cell-based. Particulars: for IC50: PC-3, 72 h.
The test system of data set [12] is A-375. Put plainly: Cytotoxicity against human A375 cells after 72 hrs by MTT assay. In kind it is functional, cell-based. Particulars: for IC50: A-375, 72 h.
Data set [13] has as its system Bcap37. Put plainly: Ratio of betulin IC50 to compound IC50 for human Bcap37 cells. In kind it is functional.
Data set [14] deals with MGC-803. Nature of the data set: Ratio of betulin IC50 to compound IC50 for human MGC803 cells. The data set is classed as functional.
The subject of data set [15] is MGC-803. Put plainly: Induction of apoptosis in human MGC803 cells assessed as pyknosis at 5 uM after 12 to 48 hrs using acridine orange/ethidium bromide staining by fluorescence microscopic analysis. In kind it is functional, cell-based.
Data set [16] relates to MGC-803. Put plainly: Induction of apoptosis in human MGC803 cells assessed as apoptotic cells at 5 uM after 12 to 48 hrs using Hoechst 33258 staining by fluorescence microscopic analysis. The data set is classed as functional, cell-based.
Data set [17] concerns PC-3. Nature of the data set: Selectivity index, ratio of IC50 for mouse NIH/3T3 cells to IC50 for human PC3 cells. In kind it is functional.
For data set [18], the system named is MGC-803. Put plainly: Induction of apoptosis in human MGC803 cells assessed as apoptosis ratio at 10 uM using annexin-V and propidium iodide staining by flow cytometry. The data set is classed as functional, cell-based. Particulars: TDE = time-dependent effect.
Data set [19] concerns MGC-803. Put plainly: Induction of apoptosis in human MGC803 cells assessed as chromatin condensation at 5 uM after 12 to 48 hrs using Hoechst 33258 staining by fluorescence microscopic analysis. The data set is classed as functional, cell-based.
Data set [20] concerns MGC-803. Nature of the data set: Induction of apoptosis in human MGC803 cells assessed as apoptotic bodies at 5 uM after 12 to 48 hrs using Hoechst 33258 staining by fluorescence microscopic analysis. The data set is classed as functional, cell-based.
Data set [21] deals with Bcap37. Nature of the data set: Selectivity index, ratio of IC50 for mouse NIH/3T3 cells to IC50 for human Bcap37 cells. In kind it is functional.
The test system of data set [22] is MCF7. Nature of the data set: Cytotoxicity against human MCF7 cells after 72 hrs by MTT assay. The data set is classed as functional, cell-based. Particulars: for IC50: MCF7, 72 h.
The subject of data set [23] is Bcap37. Nature of the data set: Cytotoxicity against human Bcap37 cells after 72 hrs by MTT assay. In kind it is functional, cell-based. Particulars: for IC50: Bcap37, 72 h.
Data set [24] has as its system MCF7. Put plainly: Ratio of betulin IC50 to compound IC50 for human MCF7 cells. In kind it is functional.
Data set [25] concerns MGC-803. Put plainly: Induction of apoptosis in human MGC803 cells assessed as formation of nicks in DNA at 5 uM after 48 hrs by TUNNEL assay. In kind it is functional, cell-based.
The subject of data set [26] is MCF7. Nature of the data set: Selectivity index, ratio of IC50 for mouse NIH/3T3 cells to IC50 for human MCF7 cells. The data set is classed as functional.
Data set [27] has as its system A-375. Put plainly: Selectivity index, ratio of IC50 for mouse NIH/3T3 cells to IC50 for human A375 cells. The data set is classed as functional.

Take `CC[C@@]1(O)C(=O)OCc2c1cc1n(c2=O)Cc2cc3cc(O)ccc3nc2-1`: the result in the data set on MGC-803 [1] and with MGC-803 [2] was Active.

What is called IC50 is the point on the concentration scale where inhibition reaches its midpoint. High values mean a need for much substance, low ones inhibition by little substance. In the case of `C=C(C)[C@@H]1CC[C@]2(COC(=O)CCC(=O)N3CCCCC3)CC[C@]3(C)[C@H](CC[C@@H]4[C@@]5(C)CC[C@H](O)C(C)(C)[C@@H]5CC[C@]43C)[C@@H]12`, the “Ratio IC50” value in the data set with MGC-803 [3] is 8.23; in the data set with PC-3 [6] it was 4; in the data set on A-375 [7], 4; in the data set on Bcap37 [13], 4; in the data set on MGC-803 [14], 4; in the data set with PC-3 [17], 7.86. In addition, the “Ratio IC50” value with Bcap37 [21] worked out at 6.81; in the data set with MCF7 [24], 4; in the data set with MCF7 [26] it was 6.8; with A-375 [27], 4.72. Moreover, the outcome in the data set with MGC-803 [4], in the data set on MGC-803 [5], in the data set on MGC-803 [15], with MGC-803 [16], in the data set with MGC-803 [19] and in the data set on MGC-803 [20] was Active. The result in the data set with MGC-803 [25] was Active. Besides, the Activity entry in data set [8] is “Non-toxic”; in the data set on MGC-803 [9], “Dose-dependent effect”; with MGC-803 [10], 31.11%; with PC-3 [11], “Dose-dependent effect”; in the data set on A-375 [12], “Dose-dependent effect”; with MGC-803 [18] it was “tde”. Moreover, the Activity result in the data set with MCF7 [22] and with Bcap37 [23] was “Dose-dependent effect” throughout. Also, the IC50 was 4.3 µM with MGC-803 [9]; 4.5 µM with PC-3 [11]; 7.5 µM in the data set on A-375 [12]; 5.2 µM with MCF7 [22]; 5.2 µM in the data set with Bcap37 [23].

As to `C=C(C)[C@@H]1CC[C@]2(COC(=O)/C=C/C(=O)O)CC[C@]3(C)[C@H](CC[C@@H]4[C@@]5(C)CC[C@H](O)C(C)(C)[C@@H]5CC[C@]43C)[C@@H]12`, the “Ratio IC50” value in the data set on MGC-803 [3], in the data set with PC-3 [17], in the data set on Bcap37 [21], in the data set on MCF7 [26] and in the data set on A-375 [27] was >3 throughout. Moreover, the Activity entry in [8] is “Toxic”. Also, the IC50 in the data set on MGC-803 [9] was determined as 21.3 µM; in the data set on PC-3 [11], 25.8 µM; with A-375 [12], 23.2 µM; in the data set with MCF7 [22], 17.1 µM; with Bcap37 [23] it was 18.3 µM.

Regarding `C=C(C)[C@@H]1CC[C@]2(COC(=O)CCC(=O)N(CC)CC)CC[C@]3(C)[C@H](CC[C@@H]4[C@@]5(C)CC[C@H](O)C(C)(C)[C@@H]5CC[C@]43C)[C@@H]12`, the “Ratio IC50” value was 7.29 in the data set with MGC-803 [3]; 6.45 with PC-3 [17]; 9.25 in the data set with Bcap37 [21]; 6.73 in the data set with MCF7 [26]; 6.01 in the data set on A-375 [27]. For the same compound, in data set [8], the Activity result was “Non-toxic”. In addition, the IC50 with MGC-803 [9] turned out to be 8.5 µM; with PC-3 [11] it was 9.6 µM; with A-375 [12], 10.3 µM; with MCF7 [22], 9.2 µM; in the data set on Bcap37 [23], 6.7 µM.
